Laboratory results: ChEMBL document CHEMBL3045337, “A Comparative Study: Evaluation of Antioxidant Activity of Melatonin and Some Indole Derivatives” (Med Chem Res, 2005)

Tests used:
[1] = system: Liver; test: Antioxidant activity in Rattus norvegicus (rat) liver homogenate assessed as inhibition of lipid peroxidation measuring TBARS production at 10 '-3 M after 1 hr by spectrophotometry relative to control; format: functional, tissue-based
[2] = Antioxidant activity assessed as superoxide radical scavenging activity at 10 '-4 M measured for 3 min by spectrophotometry relative to control; format: functional
[3] = Antioxidant activity assessed as superoxide radical scavenging activity at 10 '-3 M measured for 3 min by spectrophotometry relative to control; format: functional
[4] = system: Liver; test: Antioxidant activity in Rattus norvegicus (rat) liver homogenate assessed as inhibition of lipid peroxidation measuring TBARS production at 10 '-4 M after 1 hr by spectrophotometry relative to control; format: functional, tissue-based

SMILES | inhibition [1] [%] | Superoxide level, % of control [2] [%] | Activity [3] [%] | TBARS production (% of control) [4] [%]
Cc1c(C)c2c(c(C)c1O)CC[C@@](C)(CCC[C@H](C)CCC[C@H](C)CCCC(C)C)O2 | 27 | 83 | 14 | 46
CCN(CC)CCNC(=O)CCc1c[nH]c2ccccc12 | 26 | 102 | 91 | 51
CCCNC(=O)CCc1c[nH]c2ccccc12 | 28 | 100 | 94 | 102
CCCCNC(=O)CCc1c[nH]c2ccccc12 | 28 | 104 | 85 | 100
CCN(CC)CCCNC(=O)CCc1c[nH]c2ccccc12 | 31 | 108 | 90 | 96
COc1ccc2[nH]cc(CCNC(C)=O)c2c1 | 28 | 90 | 84 | 93
CCCCCNC(=O)CCc1c[nH]c2ccccc12 | 25 | 103 | 87 | 94
CN(C)CCCNC(=O)CCc1c[nH]c2ccccc12 | 27 | 98 | 98 | 102
COC(=O)CCc1c[nH]c2ccccc12 | 56 | 54 | 70 | 114
CN(C)CCNC(=O)CCc1c[nH]c2ccccc12 | 28 | 94 | 83 | 101
